Assays:
[1] = test system: cucumber seedlings; assay: Safety for plant growth after application; format: in vivo; conditions: dosage 200 ppm
Outline: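 Using pot-grown cucumber seedlings indoors, we recorded plant height growth rate together with chlorophyll content and leaf area following compound application.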

[2] = test system: pathogenic bacteria causing bacterial wilt in tobacco; assay: whole plant or invertebrate; format: cell-based, ralstonia; conditions: read-out: inhibitory rate
[3] = test system: pathogenic bacteria causing stem rot in sweet potatoes; assay: In vitro bactericidal activity, stem rot in sweet potatoes; format: cell-based, dikia; conditions: read-out: inhibitory rate; for inhibition at 1 ppm: dosage 1 ppm; for inhibition at 5 ppm: dosage 5 ppm
[4] = test system: pathogenic bacteria causing bacterial angular leaf spot in cucumbers; assay: In vitro bactericidal activity, bacterial angular leaf spot in cucumbers; format: cell-based, pseudomonas; conditions: read-out: inhibitory rate; for inhibition at 1 ppm: dosage 1 ppm; for inhibition at 5 ppm: dosage 5 ppm
[5] = test system: pathogenic bacteria causing bacterial blight in rice; assay: whole plant or invertebrate; format: cell-based, xanthomonas; conditions: read-out: inhibitory rate
[6] = test system: bacterial blight in rice; assay: whole plant or invertebrate; conditions: Oryza sativa, read-out: efficacy against bacterial blight in rice
[7] = test system: pathogenic bacteria causing bacterial wilt in cassava; assay: organism not typed; format: cell-based; conditions: read-out: inhibitory rate
[8] = test system: stem rot in sweet potatoes; assay: whole plant or invertebrate; conditions: read-out: efficacy against stem rot in sweet potatoes
[9] = test system: fruit blotch in watermelons; assay: whole plant or invertebrate; conditions: read-out: efficacy against fruit blotch in watermelons
[10] = test system: black shank in potatoes; assay: Living crops in vivo protective activity, potatoes (root irrigation); conditions: Solanum tuberosum, read-out: efficacy against black shank in potatoes; for pest or weed control at 5 ppm: dosage 5 ppm; for pest or weed control at 10 ppm: dosage 10 ppm
Method: Root irrigation was carried out on the potatoes for tests according to the designed concentration of the agents. The dosage for each plant was 200 mL and was kept consistent (also for the control). The black shank bacteria were inoculated on the second day after the application. The results were investigated according to the disease condition.

[11] = test system: bacterial wilt in tobacco; assay: whole plant or invertebrate; conditions: Nicotiana tabacum, read-out: efficacy against bacterial wilt in tobacco
[12] = test system: pathogenic bacteria causing fire blight in pears; assay: In vitro bactericidal activity, fire blight in pears; format: cell-based, erwinia; conditions: Erwinia, read-out: inhibitory rate; for inhibition at 1 ppm: dosage 1 ppm; for inhibition at 5 ppm: dosage 5 ppm
[13] = test system: soft rot in Chinese cabbages; assay: whole plant or invertebrate; conditions: 48 h, read-out: efficacy against soft rot in Chinese cabbages
[14] = test system: indoor potted cucumber seedlings; assay: Effect of improving growth and development of crops; format: in vivo; set-up: Rate of growth rate increase (%): concentration or dose not given beside the values; conditions: versus blank control; for Rate of chlorophyll content increase (%) / Rate of leaf area increase (%): 14 days after application; for Rate of growth rate increase (%): plant height 14 days after application; for Rate of leaf area increase (%): second leaf
Outline: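 Before treatment, plant height and the second leaf's length and width are recorded. After 14 days these are repeated, chlorophyll is read by meter, and percentage increases in growth rate, leaf area and chlorophyll are computed.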

[15] = test system: pathogenic bacteria causing black rot in Chinese cabbages; assay: In vitro bactericidal activity, black rot in Chinese cabbages; format: cell-based, xanthomonas; conditions: Xanthomonas, read-out: inhibitory rate; for inhibition at 1 ppm: dosage 1 ppm; for inhibition at 5 ppm: dosage 5 ppm
[16] = test system: pathogenic bacteria causing black shank in potatoes; assay: In vitro bactericidal activity, black shank in potatoes; format: cell-based; conditions: read-out: inhibitory rate; for inhibition at 1 ppm: dosage 1 ppm; for inhibition at 5 ppm: dosage 5 ppm
[17] = test system: pathogenic bacteria causing fruit blotch in watermelons; assay: In vitro bactericidal activity, fruit blotch in watermelons; format: cell-based, acidovorax; conditions: read-out: inhibitory rate; for inhibition at 1 ppm: dosage 1 ppm; for inhibition at 5 ppm: dosage 5 ppm

Row | SMILES | safety for plant growth (discoloration, necrosis, wilt, malformation) [1] | inhibition at 1 ppm [2] [%] | inhibition at 5 ppm [2] [%] | inhibition at 1 ppm [3] [%] | inhibition at 5 ppm [3] [%] | inhibition at 1 ppm [4] [%] | inhibition at 5 ppm [4] [%] | inhibition at 1 ppm [5] [%] | inhibition at 5 ppm [5] [%] | pest or weed control at 5 ppm [6] [%] | pest or weed control at 10 ppm [6] [%] | inhibition at 1 ppm [7] [%] | inhibition at 5 ppm [7] [%] | pest or weed control at 5 ppm [8] [%] | pest or weed control at 10 ppm [8] [%] | pest or weed control at 5 ppm [9] [%] | pest or weed control at 10 ppm [9] [%] | pest or weed control at 5 ppm [10] [%] | pest or weed control at 10 ppm [10] [%] | pest or weed control at 5 ppm [11] [%] | further results
1 | O=C(OCCCO)c1cn(C2CC2)c2cc(Cl)c(F)cc2c1=O [Compound 164, 3-hydroxypropyl 7-chloro-1-cyclopropyl-6-fluoro-4-oxo-1,4-dihydroquinoline-3-carboxylate] | safe for plant growth | ≥ 90 | ≥ 90 | ≥ 90 | ≥ 90 | ≥ 90 | ≥ 90 | ≥ 90 | ≥ 90 | ≥ 90 | ≥ 90 | ≥ 90 | ≥ 90 | ≥ 90 | ≥ 90 | ≥ 90 | ≥ 90 | ≥ 90 | ≥ 90 | ≥ 90 | pest or weed control at 10 ppm [11]: ≥ 90%; inhibition at 1 ppm [12]: ≥ 90%; inhibition at 5 ppm [12]: ≥ 90%; pest or weed control at 5 ppm [13]: ≥ 90%; pest or weed control at 10 ppm [13]: ≥ 90%; Rate of chlorophyll content increase (%) [14]: 19%; Rate of growth rate increase (%) [14]: 12%; Rate of leaf area increase (%) [14]: 16%; inhibition at 1 ppm [15]: ≥ 90%; inhibition at 5 ppm [15]: ≥ 90%; inhibition at 1 ppm [16]: ≥ 90%; inhibition at 5 ppm [16]: ≥ 90%; inhibition at 1 ppm [17]: ≥ 90%; inhibition at 5 ppm [17]: ≥ 90%
2 | O=C(OCCO)c1cn(C2CC2)c2cc(N3CCOCC3)c(F)cc2c1=O [Compound 425] | safe for plant growth | ≥ 90 | ≥ 90 | ≥ 90 | ≥ 90 | ≥ 90 | ≥ 90 | ≥ 90 | ≥ 90 | ≥ 90 | ≥ 90 | ≥ 90 | ≥ 90 | ≥ 90 | ≥ 90 | ≥ 90 | ≥ 90 | ≥ 90 | ≥ 90 | ≥ 90 | pest or weed control at 10 ppm [11]: ≥ 90%; inhibition at 1 ppm [12]: ≥ 90%; inhibition at 5 ppm [12]: ≥ 90%; pest or weed control at 5 ppm [13]: ≥ 90%; pest or weed control at 10 ppm [13]: ≥ 90%; Rate of chlorophyll content increase (%) [14]: 13%; Rate of growth rate increase (%) [14]: 10%; Rate of leaf area increase (%) [14]: 11%; inhibition at 1 ppm [15]: ≥ 90%; inhibition at 5 ppm [15]: ≥ 90%; inhibition at 1 ppm [16]: ≥ 90%; inhibition at 5 ppm [16]: ≥ 90%; inhibition at 1 ppm [17]: ≥ 90%; inhibition at 5 ppm [17]: ≥ 90%
3 | CCOCCOC(=O)c1cn(C2CC2)c2cc(OCC(F)(F)F)c(F)cc2c1=O [Compound 335] | safe for plant growth | ≥ 90 | ≥ 90 | ≥ 90 | ≥ 90 | ≥ 90 | ≥ 90 | ≥ 90 | ≥ 90 | ≥ 90 | ≥ 90 | ≥ 90 | ≥ 90 | ≥ 90 | ≥ 90 | ≥ 90 | ≥ 90 | ≥ 90 | ≥ 90 | ≥ 90 | pest or weed control at 10 ppm [11]: ≥ 90%; inhibition at 1 ppm [12]: ≥ 90%; inhibition at 5 ppm [12]: ≥ 90%; pest or weed control at 5 ppm [13]: ≥ 90%; pest or weed control at 10 ppm [13]: ≥ 90%; Rate of chlorophyll content increase (%) [14]: 16%; Rate of growth rate increase (%) [14]: 12%; Rate of leaf area increase (%) [14]: 16%; inhibition at 1 ppm [15]: ≥ 90%; inhibition at 5 ppm [15]: ≥ 90%; inhibition at 1 ppm [16]: ≥ 90%; inhibition at 5 ppm [16]: ≥ 90%; inhibition at 1 ppm [17]: ≥ 90%; inhibition at 5 ppm [17]: ≥ 90%
4 | COc1cc2c(cc1F)c(=O)c(C(=O)OCCCO)cn2C1CC1 [Compound 320] | safe for plant growth | ≥ 90 | ≥ 90 | ≥ 90 | ≥ 90 | ≥ 90 | ≥ 90 | ≥ 90 | ≥ 90 | ≥ 90 | ≥ 90 | ≥ 90 | ≥ 90 | ≥ 90 | ≥ 90 | ≥ 90 | ≥ 90 | ≥ 90 | ≥ 90 | ≥ 90 | pest or weed control at 10 ppm [11]: ≥ 90%; inhibition at 1 ppm [12]: ≥ 90%; inhibition at 5 ppm [12]: ≥ 90%; pest or weed control at 5 ppm [13]: ≥ 90%; pest or weed control at 10 ppm [13]: ≥ 90%; Rate of chlorophyll content increase (%) [14]: 16%; Rate of growth rate increase (%) [14]: 14%; Rate of leaf area increase (%) [14]: 9%; inhibition at 1 ppm [15]: ≥ 90%; inhibition at 5 ppm [15]: ≥ 90%; inhibition at 1 ppm [16]: ≥ 90%; inhibition at 5 ppm [16]: ≥ 90%; inhibition at 1 ppm [17]: ≥ 90%; inhibition at 5 ppm [17]: ≥ 90%

Reference: patent US20250313533A1, “QUINOLINE CARBOXYLIC ACID ESTER COMPOUND AND PREPARATION METHOD AND USE THEREOF” (priority 2019, published 2025)
